Source: the NIST ThermoML archive (doi:10.1016/j.jct.2010.05.009)

Tests used:
[1] = refractive index (Na D-line) (dimensionless); xn = mol fraction of the nth substance listed; conditions: 101 kPa, Liquid, Standard Abbe refractometry
[2] = xn = mol fraction of the nth substance listed; conditions: 101 kPa, Liquid; for viscosity: Capillary tube (Ostwald / Ubbelohde) method; for mass density: Vibrating tube method

CCCN [propan-1-amine] + CCC(C)(C)O
Conditions | mass density, 288.15 K [kg/m3] | mass density, 298.15 K [kg/m3] | mass density, 308.15 K [kg/m3] | refractive index, 288.15 K | refractive index, 298.15 K | refractive index, 308.15 K | viscosity, 288.15 K [mPa·s] | viscosity, 298.15 K [mPa·s] | viscosity, 308.15 K [mPa·s]
[1], x2 = 0 | – | – | – | 1.3899 | 1.3844 | 1.3784 | – | – | –
[1], x2 = 0.0733 | – | – | – | 1.392 | 1.3868 | 1.3809 | – | – | –
[1], x2 = 0.1528 | – | – | – | 1.3944 | 1.3893 | 1.3835 | – | – | –
[1], x2 = 0.2327 | – | – | – | 1.3968 | 1.3917 | 1.386 | – | – | –
[1], x2 = 0.3155 | – | – | – | 1.3989 | 1.394 | 1.3884 | – | – | –
[1], x2 = 0.398 | – | – | – | 1.4009 | 1.3961 | 1.3906 | – | – | –
[1], x2 = 0.4888 | – | – | – | 1.4028 | 1.398 | 1.3926 | – | – | –
[1], x2 = 0.5804 | – | – | – | 1.4043 | 1.3996 | 1.3944 | – | – | –
[1], x2 = 0.6697 | – | – | – | 1.4053 | 1.4005 | 1.3954 | – | – | –
[1], x2 = 0.7769 | – | – | – | 1.4058 | 1.4012 | 1.3962 | – | – | –
[1], x2 = 0.8741 | – | – | – | 1.406 | 1.4013 | 1.3964 | – | – | –
[1], x2 = 0.9498 | – | – | – | 1.4061 | 1.4014 | 1.3966 | – | – | –
[2], x2 = 0 | 721.57 | 711.08 | 700.4 | – | – | – | 0.3851 | 0.3585 | 0.3222
[2], x2 = 0.0733 | 731.65 | 721.43 | 710.97 | – | – | – | 0.4625 | 0.4161 | 0.3822
[2], x2 = 0.1528 | 742.12 | 732.03 | 721.79 | – | – | – | 0.5521 | 0.4813 | 0.4437
[2], x2 = 0.2327 | 752 | 742.1 | 732.07 | – | – | – | 0.6938 | 0.5258 | 0.501
[2], x2 = 0.3155 | 761.54 | 751.82 | 741.93 | – | – | – | 0.8513 | 0.6157 | 0.5725
[2], x2 = 0.398 | 770.38 | 760.84 | 751.09 | – | – | – | 1.041 | 0.7142 | 0.6756
[2], x2 = 0.4888 | 779.41 | 770.02 | 760.39 | – | – | – | 1.354 | 0.8835 | 0.8338
[2], x2 = 0.5804 | 787.76 | 778.45 | 768.97 | – | – | – | 1.827 | 1.129 | 1.03
[2], x2 = 0.6697 | 795.11 | 785.88 | 776.64 | – | – | – | 2.39 | 1.468 | 1.283
[2], x2 = 0.7769 | 802.69 | 793.82 | 784.6 | – | – | – | 3.288 | 1.974 | 1.664
[2], x2 = 0.8741 | 808.3 | 799.58 | 790.43 | – | – | – | 4.258 | 2.565 | 2.03
[2], x2 = 0.9498 | 811.88 | 803.1 | 793.93 | – | – | – | 5.17 | 3.068 | 2.304
